Data reported in ChEMBL document CHEMBL3217538, “Antimycobacterial activity of spirooxindolo-pyrrolidine, pyrrolizine and pyrrolothiazole hybrids obtained by a three-component regio- and stereoselective 1,3-dipolar cycloaddition” (2011).
≈ marks a conversion by molar mass, not a printed value.

Assays:
[1] = test system: Mycobacterium tuberculosis; assay: Antimycobacterial activity against Mycobacterium tuberculosis H37Rv by agar dilution method; assay type: functional
[2] = test system: Mycobacterium tuberculosis; assay: Ratio of pyrazinamide MIC99 to compound MIC99 for Mycobacterium tuberculosis H37Rv; assay type: functional

Row | Compound | MIC99 [1] [µM] | Ratio [2]
1 | COc1ccc(C2C([N+](=O)[O-])C(c3ccccc3)N[C@@]23C(=O)Nc2ccccc23)cc1 (stereo partly drawn) | > 60.2 | 
2 | O=C1Nc2ccccc2[C@]12NC(c1ccccc1)C([N+](=O)[O-])C2c1ccc(Cl)cc1 (stereo partly drawn) | 29.8 (≈ 12.5 µg/mL) | 1.7
3 | O=C1Nc2ccccc2[C@]12NC(c1ccccc1)C([N+](=O)[O-])C2c1cccc([N+](=O)[O-])c1 (stereo partly drawn) | 29 (≈ 12.5 µg/mL) | 1.75
4 | O=C1Nc2ccccc2[C@]12NC(c1ccccc1)C([N+](=O)[O-])C2c1cccc(Cl)c1 (stereo partly drawn) | 14.9 (≈ 6.26 µg/mL) | 3.4
5 | O=C1Nc2ccccc2[C@]12NC(c1ccccc1)C([N+](=O)[O-])C2c1ccc(F)cc1 (stereo partly drawn) | 31 (≈ 12.5 µg/mL) | 1.6
6 | O=C1Nc2ccccc2[C@]12NC(c1ccccc1)C([N+](=O)[O-])C2c1ccccc1 (stereo partly drawn) | > 64.9 | 
7 | Cc1ccc(C2C([N+](=O)[O-])C(c3ccccc3)N[C@@]23C(=O)Nc2ccccc23)cc1 (stereo partly drawn) | > 62.6 | 
8 | O=C1Nc2ccccc2[C@]12NC(c1ccccc1)C([N+](=O)[O-])C2c1ccc(Br)cc1 (stereo partly drawn) | 26.9 (≈ 12.5 µg/mL) | 1.9
9 | COc1ccc(OC)c(C2C([N+](=O)[O-])C(c3ccccc3)N[C@@]23C(=O)Nc2ccccc23)c1 (stereo partly drawn) | > 56.1 | 
10 | COc1ccc(C2C([N+](=O)[O-])C3CCCN3[C@@]23C(=O)Nc2ccccc23)cc1 (stereo partly drawn) | 65.9 (≈ 25 µg/mL) | 
11 | O=C1Nc2ccccc2[C@@]12C(c1ccc(Cl)cc1)C([N+](=O)[O-])C1CCCN12 (stereo partly drawn) | 32.6 (≈ 12.5 µg/mL) | 1.6
12 | O=C1Nc2ccccc2[C@@]12C(c1cccc([N+](=O)[O-])c1)C([N+](=O)[O-])C1CCCN12 (stereo partly drawn) | 63.4 (≈ 25 µg/mL) | 
13 | O=C1Nc2ccccc2[C@@]12C(c1cccc(Cl)c1)C([N+](=O)[O-])C1CCCN12 (stereo partly drawn) | 32.6 (≈ 12.5 µg/mL) | 1.6
14 | O=C1Nc2ccccc2[C@@]12C(c1ccc(F)cc1)C([N+](=O)[O-])C1CCCN12 (stereo partly drawn) | 68.1 (≈ 25 µg/mL) | 
15 | O=C1Nc2ccccc2[C@@]12C(c1ccccc1)C([N+](=O)[O-])C1CCCN12 (stereo partly drawn) | 71.6 (≈ 25 µg/mL) | 
16 | Cc1ccc(C2C([N+](=O)[O-])C3CCCN3[C@@]23C(=O)Nc2ccccc23)cc1 (stereo partly drawn) | 68.8 (≈ 25 µg/mL) | 
17 | O=C1Nc2ccccc2[C@@]12C(c1ccc(Br)cc1)C([N+](=O)[O-])C1CCCN12 (stereo partly drawn) | 58.4 (≈ 25 µg/mL) | 
18 | COc1ccc(OC)c(C2C([N+](=O)[O-])C3CCCN3[C@@]23C(=O)Nc2ccccc23)c1 (stereo partly drawn) | > 61.1 | 
19 | COc1cc(C2C([N+](=O)[O-])C3CCCN3[C@@]23C(=O)Nc2ccccc23)cc(OC)c1OC (stereo partly drawn) | > 56.9 | 
20 | COc1ccc(C2C([N+](=O)[O-])C3CSCN3[C@@]23C(=O)Nc2ccccc23)cc1 (stereo partly drawn) | 62.9 (≈ 25 µg/mL) | 
21 | O=C1Nc2ccccc2[C@@]12C(c1ccc(Cl)cc1)C([N+](=O)[O-])C1CSCN12 (stereo partly drawn) | 15.5 (≈ 6.23 µg/mL) | 3.3
22 | O=C1Nc2ccccc2[C@@]12C(c1cccc([N+](=O)[O-])c1)C([N+](=O)[O-])C1CSCN12 (stereo partly drawn) | 7.6 (≈ 3.13 µg/mL) | 6.7
23 | O=C1Nc2ccccc2[C@@]12C(c1cccc(Cl)c1)C([N+](=O)[O-])C1CSCN12 (stereo partly drawn) | 7.8 (≈ 3.13 µg/mL) | 6.5
24 | O=C1Nc2ccccc2[C@@]12C(c1ccc(F)cc1)C([N+](=O)[O-])C1CSCN12 (stereo partly drawn) | 8.2 (≈ 3.16 µg/mL) | 6.2
25 | CC[C@@H](CO)NCCN[C@@H](CC)CO [ETHAMBUTOL] | 7.6 (≈ 1.55 µg/mL) | 
26 | NNC(=O)c1ccncc1 [ISONIAZID] | 0.4 (≈ 0.0549 µg/mL) | 
27 | NC(=O)c1cnccn1 [PYRAZINAMIDE] | 50.1 (≈ 6.17 µg/mL) | 
